# Assay results from ChEMBL document CHEMBL2203060, “Design, synthesis and biological evaluation of N-arylphenyl-2,2-dichloroacetamide analogues as anti-cancer agents” (Bioorg Med Chem Lett, 2012).
# How the values were obtained:
# Assay type in all cases: functional, cell-based
# A549 = assay: Cytotoxicity against human A549 cells after 68 hrs by MTT assay; details: A549, 68 h
# NCI-H460 = assay: Cytotoxicity against human H460 cells after 68 hrs by MTT assay; details: NCI-H460, 68 h
# [1] = Cytotoxicity against human KB-3-1 cells after 68 hrs by MTT assay; details: KB 3-1, 68 h
SMILES,IC50 (A549) [µM],IC50 (NCI-H460) [µM],IC50 [1] [µM]
O=C(Nc1cccc(-c2nccs2)c1)C(Cl)Cl,> 50,> 50,> 50
O=C(Nc1cc(-c2ccc3c(c2)OCO3)cc(-c2ccc3c(c2)OCO3)c1)C(Cl)Cl,1.73,1.04,2.4
O=C(Nc1cc(-c2ccc(OC3CCCCO3)cc2)cc(-c2ccc(OC3CCCCO3)cc2)c1)C(Cl)Cl (stereo not drawn),2.75,2.42,7.22
CC(C)c1ccc(-c2cc(NC(=O)C(Cl)Cl)cc(-c3ccc(C(C)C)cc3)c2)cc1,17.4,24.8,> 30
COc1ccc(-c2cc(NC(=O)C(Cl)Cl)cc(-c3ccc(OC)c(F)c3)c2)cc1F,1.95,1.76,2.94
COc1cc(F)cc(-c2cc(NC(=O)C(Cl)Cl)cc(-c3cc(F)cc(OC)c3)c2)c1,8.99,2.9,5.99
O=C(Nc1cccc(-c2cccc(NC(=O)C(Cl)Cl)c2)c1)C(Cl)Cl,47.9,> 50,> 50
Cc1ccc(-c2cccc(NC(=O)C(Cl)Cl)c2)cc1,8.3,8,> 50
O=C(Nc1cccc(-c2ccc(F)cc2)c1)C(Cl)Cl,7.84,> 50,26.2
O=C(Nc1cccc(-c2ccc(Cl)cc2)c1)C(Cl)Cl,36.2,> 50,38.2
COc1ccc(-c2cccc(NC(=O)C(Cl)Cl)c2)cc1,8.53,43.3,> 50
O=C(Nc1cccc(-c2ccc(C(F)(F)F)cc2)c1)C(Cl)Cl,23.5,33.5,> 50
O=C(Nc1cccc(-c2ccc(-c3ccccc3)cc2)c1)C(Cl)Cl,> 50,10.9,> 50
COC(=O)c1ccc(-c2cccc(NC(=O)C(Cl)Cl)c2)cc1,> 50,> 50,> 50
COc1ccccc1-c1cc(NC(=O)C(Cl)Cl)cc(-c2ccccc2OC)c1,25.5,> 30,> 30
COc1cccc(-c2cc(NC(=O)C(Cl)Cl)cc(-c3cccc(OC)c3)c2)c1,9.4,> 30,> 30
COc1ccc(-c2cc(NC(=O)C(Cl)Cl)cc(-c3ccc(OC)cc3)c2)cc1,20.8,> 30,> 30
CCOc1ccccc1-c1cc(NC(=O)C(Cl)Cl)cc(-c2ccccc2OCC)c1,7.28,5.09,8.73
CCOc1cccc(-c2cc(NC(=O)C(Cl)Cl)cc(-c3cccc(OCC)c3)c2)c1,8.83,4.95,14.8
CCOc1ccc(-c2cc(NC(=O)C(Cl)Cl)cc(-c3ccc(OCC)cc3)c2)cc1,8.05,6.08,23.9
CSc1ccccc1-c1cc(NC(=O)C(Cl)Cl)cc(-c2ccccc2SC)c1,6.51,> 30,> 30

SMILES,IC50 (A549) [µM],IC50 (NCI-H460) [µM],IC50 [1] [µM]
CSc1cccc(-c2cc(NC(=O)C(Cl)Cl)cc(-c3cccc(SC)c3)c2)c1,15.9,> 30,> 30
CSc1ccc(-c2cc(NC(=O)C(Cl)Cl)cc(-c3ccc(SC)cc3)c2)cc1,22.3,> 30,> 30
CC(C)Oc1ccc(-c2cc(NC(=O)C(Cl)Cl)cc(-c3ccc(OC(C)C)cc3)c2)cc1,3.82,2.86,8.85
O=C(Nc1cccc(-c2ccccc2)c1)C(Cl)Cl,8.9,20.2,46.8
O=C(Nc1cccc(-c2ccoc2)c1)C(Cl)Cl,8.48,37.6,> 50
O=C(Nc1cccc(-c2cccs2)c1)C(Cl)Cl,47.6,> 50,> 50
O=C(Nc1cccc(-c2ccsc2)c1)C(Cl)Cl,> 50,> 50,> 50
O=C(Nc1cccc(-c2ccccn2)c1)C(Cl)Cl,> 50,> 50,> 50
Cc1ccccc1-c1cccc(NC(=O)C(Cl)Cl)c1,9.86,31.6,42
O=C(Nc1cccc(-c2ccccc2F)c1)C(Cl)Cl,13.2,26.8,48.3
O=C(Nc1cccc(-c2ccccc2Cl)c1)C(Cl)Cl,22.6,> 50,> 50
COc1ccccc1-c1cccc(NC(=O)C(Cl)Cl)c1,13.1,40.4,13.1
O=C(Nc1cccc(-c2ccccc2C(F)(F)F)c1)C(Cl)Cl,7.5,7.55,35.9
Cc1cccc(-c2cccc(NC(=O)C(Cl)Cl)c2)c1,8.7,24.2,> 50
O=C(Nc1cccc(-c2cccc(F)c2)c1)C(Cl)Cl,9.53,> 50,> 50
O=C(Nc1cccc(-c2cccc(Cl)c2)c1)C(Cl)Cl,21.4,> 50,> 50
COc1cccc(-c2cccc(NC(=O)C(Cl)Cl)c2)c1,4.31,33.8,43.3
O=C(Nc1cccc(-c2cccc(C(F)(F)F)c2)c1)C(Cl)Cl,18.5,30.2,> 50
Nc1cccc(-c2cccc(NC(=O)C(Cl)Cl)c2)c1,> 50,> 50,26.1
O=C([O-])C(Cl)Cl.[Na+] [SODIUM DICHLOROACETATE],4290,3890,5880
